Experimental data published in PMC3127977, “No relevant cardiac, pharmacokinetic or safety interactions between roflumilast and inhaled formoterol in healthy subjects: an open-label, randomised, actively controlled study” (BMC Clinical Pharmacology, 2011).
Each block holds one compound with its values, some of them ahead of it.

How the values were obtained:
[1] = system: human parenchymal and bronchial explants; details: in vitro; cited from earlier work
healthy subjects [2] = assay: Adverse event monitoring; assay type: in vivo, human
Text: Blood and urine samples for conventional clinical laboratory safety tests were obtained at the screening visit, in the morning of each main profiling day, and on Day 19. Adverse events (AEs) were monitored throughout the study.

[3] = Steady-state plasma pharmacokinetics (HPLC-MS/MS) in healthy men; oral roflumilast 500 μg once daily, inhaled formoterol 24 μg twice daily; details: for Cmax: Cmax (formoterol)
Method: (§1) For Regimen A, subjects received 500 μg oral roflumilast once daily (daily dose: one tablet of roflumilast 500 μg) from the morning of Day 2 to the morning of Day 18. […] For Regimen B, subjects received 24 μg formoterol for oral inhalation delivered by a DPI device (Foradil® P) twice daily, once in the morning and once in the evening from the morning of Day 2 to the evening of Day 18.
Pre-dose blood samples for determination of trough levels were taken on Days 9 and 10 for Regimen A (morning only), and on Days 6 and 7 (morning and evening) for Regimen B. Blood samples (4.5 mL) were collected in heparinised tubes and plasma was obtained by centrifugation at 1550 g for 15 minutes. Plasma samples were stored at -20°C or below for roflumilast, and at -70°C for formoterol. Plasma concentrations of roflumilast and roflumilast N-oxide were determined using high-performance liquid chromatography coupled with tandem mass spectrometry (HPLC-MS/MS). […] Roflumilast and roflumilast N-oxide standard curves were valid up to 20 ng/mL and 40 ng/mL, respectively. Determination of roflumilast and roflumilast N-oxide was performed at Altana Pharma AG, Konstanz, Germany (Nycomed GmbH). Plasma concentrations of formoterol were determined using HPLC-MS/MS. The LLOQ in plasma was 0.4 pg/mL using a sample volume of 1.0 mL. […] Determination of formoterol was performed at pharm-analyt Labor GmbH, Baden, Austria, under the supervision of Altana Pharma AG(Nycomed GmbH).
For roflumilast, roflumilast N-oxide and formoterol, the maximum plasma concentration (Cmax) was derived directly from the plasma concentrations. The AUC from time zero to the time of the last quantifiable concentration, which corresponded to the dosing interval of each analyte (AUC0-τ), was estimated using the linear trapezoidal method. Apparent clearance at steady state (CL/F; calculated by dose/AUCτ) was reported for roflumilast only. […] The calculation of tPDE4i was based on the equation described in Lahu et al..

[4] = Serum potassium concentration on profiling days; details: Regimen B, Day 8
Text: (§2) During the main profiling days, blood was sampled at each ZCG time point for the determination of serum glucose and potassium concentrations.

healthy subjects [5] = assay: Transthoracic impedance cardiography (ZCG) and systolic time intervals in healthy men; oral roflumilast 500 μg once daily, inhaled formoterol 24 μg twice daily; details: Regimen B
Method: as §1
Cardiovascular effects were evaluated non-invasively by means of ECGs (cardiac rhythm, intra-cardiac conduction and ventricular repolarisation), oscillometric blood pressure and transthoracic impedance cardiography (ZCG; systolic time intervals, contractility indices and estimates of stroke volume and cardiac output). Cardiovascular assessments (oscillometric blood pressure, pulse rate, 12-lead ECG, and three-lead ZCG) were recorded before dosing and at 10, 20, 40 and 60 minutes, and at 2, 3, 4, 5, 6, 7 and 8 hours after morning dosing. […] All cardiovascular measurements were carried out after the subjects had been recumbent for at least 10 minutes; they generally stayed in bed from 1 hour before until 8 hours after morning dosing.
Systolic time intervals (STIs) and ZCG estimates of the systolic cardiac pump performance were derived from the simultaneous registration of a one-lead ECG, a phonocardiogram (PCG), and the rate of change of the transthoracic impedance (dZ/dt) to an AC current applied through the thoracic cage (CARDIODYNAGRAPH; Diefenbach GmbH, Wiesbaden, Germany). Tracings were captured and stored digitally during the study and subsequently analysed after the study by displaying the analogue ECG, PCG and ZCG signals on a computer screen. The relevant signal amplitudes and time intervals were delineated manually by operator-steered cursors; measurements were made for at least 10 artefact-free consecutive cardiac cycles. From these tracings, the following variables were derived by direct measurement: RR interval (ms), total electromechanic systole (QS2 [ms]), ventricular ejection time (VET [ms]), baseline transthoracic impedance (Z0 [Ω]), and maximum negative velocity of transthoracic impedance changes during the cardiac cycle (dZ/dtmax [Ω/s]). These variables were analysed for the 10 cycles and their means were used in the calculations of the following variables: heart rate (HR [bpm]), pre-ejection period (PEP [ms] = QS2 - VET), HR-corrected STIs (STIc and STIi according to Weissler et al.), ZCG estimates of stroke volume (SV [mL] according to Kubicek's equation [37] using the equation of Geddes and Sadler for the specific resistance of blood), cardiac output (CO [mL/min]), and total peripheral resistance (TPR [dyn.s.cm^-5]). For the latter variable, the mean blood pressure (MBP [mmHg]) was used as calculated according to Wezler and Böger from the systolic blood pressure (mmHg) and the diastolic blood pressure (mmHg).
ZCG analysis was carried out by a single analyst who was blinded with regard to subject, study regimen, profiling day within regimen, and time during the day.

healthy subjects [6] = assay: Digital 12-lead electrocardiography (HR, QT, QTc); assay type: in vivo, human
Method: Digital 12-lead ECGs were recorded immediately after each ZCG recording. Tracings were analysed off-study by regimen-blinded qualified analysts, using previously reported methodology. For each time point, three cycles were measured with regard to the RR, PQ and QT-intervals [ms]. The means of the three measurements were used for the calculation of HR and HR-corrected QTc intervals, according to Bazett's equation (QTcB = QT/RR^1/2) and Fridericia's equation (QTcF = QT/RR^1/3).

[7] = cited from earlier work
[8] = Serum glucose concentration on profiling days; details: Regimen B, throughout Day 8 compared with Day 1
Text: as §2

[9] = cited from earlier work; remark: listed apart in the source

SMILES: COc1ccc(CC(C)NCC(O)c2ccc(O)c(NC=O)c2)cc1 (centres unmarked) [Formoterol]
- inhibitory effect of roflumilast on cytokine and tumour necrosis factor-α production [1]: increased
- number of AEs (healthy subjects [2]; Regimen B, Day 2 to Day 8): no AEs were reported
- tremor (healthy subjects [2]; administered alone (Regimens A and B respectively)): not observed
- changes in steady-state pharmacokinetics when the other drug was added ([3]; formoterol added to roflumilast, or roflumilast added to formoterol): no changes
- Cmax ([3]; male, human, in vivo, 24 μg, steady state, Regimen B Day 8 (formoterol alone), geometric mean (68% range)): 16.7 ng/mL
- AUC ([3]; male, human, in vivo, AUCτ (formoterol), steady state, Regimen A Day 18 (roflumilast plus formoterol), geometric mean (68% range)): 93.2 ng·h/mL
- Cmax ([3]; male, human, in vivo, steady state, Regimen A Day 18 (roflumilast plus formoterol), geometric mean (68% range)): 18.7 ng/mL
- Cmax ([3]; male, human, in vivo, steady state, Regimen B Day 18 (formoterol plus roflumilast), geometric mean (68% range)): 17.2 ng/mL
- Ctrough (formoterol) ([3]; steady state, Regimen A Day 18 (roflumilast plus formoterol), geometric mean (68% range)): 4.23 (2.43-7.38) μg/L
- Ctrough (formoterol) ([3]; steady state, Regimen B Day 8 (formoterol alone), geometric mean (68% range)): 4.12 (3.05-5.57) μg/L
- Ctrough (formoterol) ([3]; steady state, Regimen B Day 18 (formoterol plus roflumilast), geometric mean (68% range)): 3.94 (3.13-4.96) μg/L
- pre-dose serum potassium concentration [4]: 4.38 mmol/L
- CO, Day 1-matched post-dose maximum dmax (δ), median (healthy subjects [5]; Day 8 (F)): 2.9 L/min
- CO, Day 1-matched post-dose minimum dmin (δ), median (healthy subjects [5]; Day 8 (F)): -0.6 L/min
- CO, untransformed post-dose maximum dmax (U), median (healthy subjects [5]; Day 8 (F)): 11.8 L/min
- CO, untransformed post-dose minimum dmin (U), median (healthy subjects [5]; Day 8 (F)): 8.2 L/min
- CO, untransformed pre-dose morning value, median (healthy subjects [5]; Day 8 (F)): 9.7 L/min
- HR, Day 1-matched post-dose maximum dmax (δ), median (healthy subjects [5]; Day 8 (F)): 16 bpm
- HR, Day 1-matched post-dose minimum dmin (δ), median (healthy subjects [5]; Day 8 (F)): -2 bpm
- HR, untransformed post-dose maximum dmax (U), median (healthy subjects [5]; Day 8 (F)): 72 bpm
- HR, untransformed post-dose minimum dmin (U), median (healthy subjects [5]; Day 8 (F)): 62 bpm
- HR, untransformed pre-dose morning value, median (healthy subjects [5]; Day 8 (F)): 66 bpm
- PEP, Day 1-matched post-dose maximum dmax (δ), median (healthy subjects [5]; Day 8 (F)): 25 ms
- PEP, Day 1-matched post-dose minimum dmin (δ), median (healthy subjects [5]; Day 8 (F)): -26 ms
- PEP, untransformed post-dose maximum dmax (U), median (healthy subjects [5]; Day 8 (F)): 117 ms
- PEP, untransformed post-dose minimum dmin (U), median (healthy subjects [5]; Day 8 (F)): 84 ms
- PEP, untransformed pre-dose morning value, median (healthy subjects [5]; Day 8 (F)): 97 ms
- QS2, Day 1-matched post-dose maximum dmax (δ), median (healthy subjects [5]; Day 8 (F)): 13 ms
- QS2, Day 1-matched post-dose minimum dmin (δ), median (healthy subjects [5]; Day 8 (F)): -47 ms
- QS2, untransformed post-dose maximum dmax (U), median (healthy subjects [5]; Day 8 (F)): 440 ms
- QS2, untransformed post-dose minimum dmin (U), median (healthy subjects [5]; Day 8 (F)): 408 ms
- QS2, untransformed pre-dose morning value, median (healthy subjects [5]; Day 8 (F)): 431 ms
- TPR, Day 1-matched post-dose maximum dmax (δ), median (healthy subjects [5]; Day 8 (F)): 61 dyn.s.cm^-5
- TPR, Day 1-matched post-dose minimum dmin (δ), median (healthy subjects [5]; Day 8 (F)): -221 dyn.s.cm^-5
- TPR, untransformed post-dose maximum dmax (U), median (healthy subjects [5]; Day 8 (F)): 882 dyn.s.cm^-5
- TPR, untransformed post-dose minimum dmin (U), median (healthy subjects [5]; Day 8 (F)): 561 dyn.s.cm^-5
- TPR, untransformed pre-dose morning value, median (healthy subjects [5]; Day 8 (F)): 668 dyn.s.cm^-5
- dZ/dt, Day 1-matched post-dose maximum dmax (δ), median (healthy subjects [5]; Day 8 (F)): 0.32 Ω/s
- dZ/dt, Day 1-matched post-dose minimum dmin (δ), median (healthy subjects [5]; Day 8 (F)): -0.29 Ω/s
- dZ/dt, untransformed post-dose maximum dmax (U), median (healthy subjects [5]; Day 8 (F)): 2.10 Ω/s
- dZ/dt, untransformed post-dose minimum dmin (U), median (healthy subjects [5]; Day 8 (F)): 1.64 Ω/s
- dZ/dt, untransformed pre-dose morning value, median (healthy subjects [5]; Day 8 (F)): 1.94 Ω/s
- CO, dmax (U), point estimate (95% CI) of difference between days (healthy subjects [5]; Day 8-Day 1): 1.7 (0.6 to 2.6) L/min
- CO, dmin (U), point estimate (95% CI) of difference between days (healthy subjects [5]; Day 8-Day 1): 0.5 (-0.5 to 1.4) L/min
- CO, untransformed pre-dose morning value, point estimate (95% CI) of difference between days (healthy subjects [5]; Day 8-Day 1): 0.7 (-0.9 to 2.0) L/min
- HR, dmax (U), point estimate (95% CI) of difference between days (healthy subjects [5]; Day 8-Day 1): 9 (5 to 11) bpm
- HR, dmin (U), point estimate (95% CI) of difference between days (healthy subjects [5]; Day 8-Day 1): 7 (3 to 10) bpm
- HR, untransformed pre-dose morning value, point estimate (95% CI) of difference between days (healthy subjects [5]; Day 8-Day 1): 5 (2 to 9) bpm
- PEP, dmax (U), point estimate (95% CI) of difference between days (healthy subjects [5]; Day 8-Day 1): -4 (-14 to 2) ms
- PEP, dmin (U), point estimate (95% CI) of difference between days (healthy subjects [5]; Day 8-Day 1): 0 (-7 to 6) ms
- PEP, untransformed pre-dose morning value, point estimate (95% CI) of difference between days (healthy subjects [5]; Day 8-Day 1): -7 (-22 to 7) ms
- QS2, dmax (U), point estimate (95% CI) of difference between days (healthy subjects [5]; Day 8-Day 1): -14 (-27 to 4) ms
- QS2, dmin (U), point estimate (95% CI) of difference between days (healthy subjects [5]; Day 8-Day 1): -13 (-22 to -3) ms
- QS2, untransformed pre-dose morning value, point estimate (95% CI) of difference between days (healthy subjects [5]; Day 8-Day 1): -4 (-18 to 9) ms
- TPR, dmax (U), point estimate (95% CI) of difference between days (healthy subjects [5]; Day 8-Day 1): -49 (-160 to 80) dyn.s.cm^-5
- TPR, dmin (U), point estimate (95% CI) of difference between days (healthy subjects [5]; Day 8-Day 1): -96 (-188 to -24) dyn.s.cm^-5
- TPR, untransformed pre-dose morning value, point estimate (95% CI) of difference between days (healthy subjects [5]; Day 8-Day 1): -18 (-198 to 70) dyn.s.cm^-5
- dZ/dt, dmax (U), point estimate (95% CI) of difference between days (healthy subjects [5]; Day 8-Day 1): 0.01 (-0.15 to 0.21) Ω/s
- dZ/dt, dmin (U), point estimate (95% CI) of difference between days (healthy subjects [5]; Day 8-Day 1): 0.03 (-0.13 to 0.17) Ω/s
- dZ/dt, untransformed pre-dose morning value, point estimate (95% CI) of difference between days (healthy subjects [5]; Day 8-Day 1): 0.06 (-0.07 to 0.19) Ω/s
- HR (ECG) (healthy subjects [6]; 12-lead ECG): slight increase
- QTc values, uncorrected or corrected using Bazett's or Fridericia's formula (healthy subjects [6]; 12-lead ECG): no clinically relevant changes
- duration of the QT interval (healthy subjects [6]; 12-lead ECG): decrease
- QT/QTc intervals (healthy subjects [6]; all subjects, all regimens): below 450 ms
- drug-drug interaction with roflumilast ([7]; orally co-administered formoterol, Phase I study, ref unpublished data, Nycomed GmbH, 2002): no apparent drug-drug interaction
- post-dose serum glucose [8]: slight post-dose increase

- changes in steady-state pharmacokinetics when the other drug was added ([3]; in vivo): no relevant changes
SMILES: O=C(Nc1c(Cl)c[n+]([O-])cc1Cl)c1ccc(OC(F)F)c(OCC2CC2)c1 [Roflumilast N-oxide]
- AUC greater than that of roflumilast [9]: 10 fold
- median effective plasma half-life ([9]; repeated dose): 30 h
- median time to maximum plasma concentration (tmax) ([9]; repeated dose): 8 h

SMILES: CCCC1O[C@@H]2C[C@H]3[C@@H]4CCC5=CC(=O)C=C[C@]5(C)[C@H]4[C@@H](O)C[C@]3(C)[C@]2(C(=O)CO)O1 (some centres unmarked) [budesonide]
- pharmacokinetic interaction on co-administration with roflumilast ([7]; healthy volunteers): no relevant pharmacokinetic interactions
